Patent EP4578856A1, “HETEROCYCLIC COMPOUND” (Ubience Inc., priority 2022, dated 2024)

Tests used:
FAK protein [1] = target: T1, FAK protein (Homo sapiens, UniProt Q05397); test: FAK kinase inhibitory activity, mobility shift assay (MSA, Carna Biosciences); type: biochemical; set-up: GST (N); purchased Carna Biosciences, Inc; host or cells: baculovirus expression system; conditions: inhibition rate at 30 nM; reaction time 5 hours
Experimental: The FAK kinase inhibitory activity was measured using a mobility shift assay (MSA) provided by Carna Biosciences, Inc.
The test compound was dissolved in DMSO to prepare a 3 µM solution. The solution was further diluted 25 times with an assay buffer (20 mmol/L HEPES, 0.01%Triton (registered trademark) X-100, 1 mmol/L DTT, pH 7.5) to obtain a test compound solution.
Incomplete human FAK kinase was expressed by fusing 376 to 1052 amino acids of Accession No. NP_722560.1 with GST at the N-terminus using the baculovirus expression system. The GST-FAK was purified by glutathione sepharose chromatography. A 4-fold concentration substrate (Blk/Lyntide, 1000 nmol/L)/ATP (25 µmol/L)/metal solution (Mg, 5 mmol/L) was prepared with kit buffer (20 mmol/L HEPES, 0.01% Triton (registered trademark) X-100, 5 mmol/L DTT, pH 7.5). A 2-fold concentration kinase solution was prepared with assay buffer.
In the same manner as described in Test Example 1, tests and evaluation of inhibitory activity and data analysis were performed. The reaction time was set to 5 hours. […]
Target sequence in this assay (Q05397 376-1052): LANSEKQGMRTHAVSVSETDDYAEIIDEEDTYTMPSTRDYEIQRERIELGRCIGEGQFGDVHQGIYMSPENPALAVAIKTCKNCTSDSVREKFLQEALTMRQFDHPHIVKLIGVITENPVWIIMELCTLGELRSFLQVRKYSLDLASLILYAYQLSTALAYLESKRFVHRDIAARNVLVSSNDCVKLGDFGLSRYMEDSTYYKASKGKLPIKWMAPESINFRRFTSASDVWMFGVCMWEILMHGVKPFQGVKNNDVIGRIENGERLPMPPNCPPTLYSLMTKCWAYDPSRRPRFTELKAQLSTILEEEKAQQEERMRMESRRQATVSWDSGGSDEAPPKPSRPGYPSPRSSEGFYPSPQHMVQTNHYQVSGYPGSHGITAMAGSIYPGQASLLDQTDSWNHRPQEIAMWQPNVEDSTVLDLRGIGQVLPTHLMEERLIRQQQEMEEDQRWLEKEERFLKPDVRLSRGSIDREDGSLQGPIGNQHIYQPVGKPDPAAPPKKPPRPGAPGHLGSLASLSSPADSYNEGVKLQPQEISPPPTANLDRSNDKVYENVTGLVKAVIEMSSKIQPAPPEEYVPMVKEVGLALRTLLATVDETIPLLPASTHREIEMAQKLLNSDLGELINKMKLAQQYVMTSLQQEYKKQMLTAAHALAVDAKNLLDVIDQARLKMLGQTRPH

FAK protein [2] = target: T1, FAK protein; test: Degradation inducing activity of FAK protein in PA-1 cells, Western blotting (Simple Western JESS); type: cell-based; set-up: endogenous in cells; host or cells: PA-1 (ATCC CRL-1572); conditions: at 10 µM, 24 hours
Experimental: In vitro degradation inducing activity of FAK protein of compounds of Examples was evaluated by Western Blotting (WB).
By a test compound, 10 mM DMSO solution was prepared, which was used as a 10 µM test compound solution. Further, the solution was diluted 10-fold with DMSO to prepare a 1 mM solution, which was used as a 1 µM test compound solution.
PA-1 cells (ATCC: CRL-1572, Lot: 70055709) were cultured in Eagle's Minimum Essential Medium supplemented with 10% FBS and 1% Penicillin/Streptomycin. The PA-1 cells seeded in a 24 well plate at 200,000 cells/well/1 mL were cultured for 24 hours, and then 1 µL of DMSO or a test compound solution was added thereto and treatment was performed for 24 hours. Cells were harvested and lysed for 20 minutes on ice using RIPA lysis buffer (Sigma, Cat#R0278) supplemented with protease inhibitor cocktail (Sigma, Cat#P8340; Roche, Cat#P11873580001), and phosphatase inhibitor cocktail (Sigma, Cat#P5726, P0044). The lysate was sonicated (15 seconds, amplitude 30%, 1 cycle) and then centrifuged at 12500 rpm for 15 minutes at 4°C. The protein concentration was determined by BCA assay kit (Thermo Fisher Scientific, Cat#23225).
The western blotting was performed using Simple Western JESS (protein simple). A cell lysis sample (protein amount; about 2 µg) was loaded on a plate of Simple Western JESS, and the expression level of […] was detected using a 12-230 kDa Wes Separation Module (Protein simple, Cat#SM-WO04), an Anti-Rabbit Detection Module for Wes (Protein simple, Cat#DM-001), and a Total Protein Detection Module for Wes (Protein simple, Cat#DM-TP01). As the primary antibody, a material obtained by diluting FAK Rabbit mAb (Cell Signaling Technology, Cat#3285) at 1:100 was used, and as the secondary antibody, a material obtained by diluting HRP-labeled anti-rabbit IgG antibody (Cell Signaling Technology, Cat#7074S) at 1:250 was used. The expression level of the target protein was standardized using the total protein amount loaded as a reference. The standardized expression level data of the control (DMSO) was taken as 100%, and the degradation rate (%) was calculated from the average standardized expression level data of the test compounds (compounds of Examples 109 to 128). All analysis steps, such as data detection and analysis, are fully automated.
Target sequence in this assay (Q05397 whole entry): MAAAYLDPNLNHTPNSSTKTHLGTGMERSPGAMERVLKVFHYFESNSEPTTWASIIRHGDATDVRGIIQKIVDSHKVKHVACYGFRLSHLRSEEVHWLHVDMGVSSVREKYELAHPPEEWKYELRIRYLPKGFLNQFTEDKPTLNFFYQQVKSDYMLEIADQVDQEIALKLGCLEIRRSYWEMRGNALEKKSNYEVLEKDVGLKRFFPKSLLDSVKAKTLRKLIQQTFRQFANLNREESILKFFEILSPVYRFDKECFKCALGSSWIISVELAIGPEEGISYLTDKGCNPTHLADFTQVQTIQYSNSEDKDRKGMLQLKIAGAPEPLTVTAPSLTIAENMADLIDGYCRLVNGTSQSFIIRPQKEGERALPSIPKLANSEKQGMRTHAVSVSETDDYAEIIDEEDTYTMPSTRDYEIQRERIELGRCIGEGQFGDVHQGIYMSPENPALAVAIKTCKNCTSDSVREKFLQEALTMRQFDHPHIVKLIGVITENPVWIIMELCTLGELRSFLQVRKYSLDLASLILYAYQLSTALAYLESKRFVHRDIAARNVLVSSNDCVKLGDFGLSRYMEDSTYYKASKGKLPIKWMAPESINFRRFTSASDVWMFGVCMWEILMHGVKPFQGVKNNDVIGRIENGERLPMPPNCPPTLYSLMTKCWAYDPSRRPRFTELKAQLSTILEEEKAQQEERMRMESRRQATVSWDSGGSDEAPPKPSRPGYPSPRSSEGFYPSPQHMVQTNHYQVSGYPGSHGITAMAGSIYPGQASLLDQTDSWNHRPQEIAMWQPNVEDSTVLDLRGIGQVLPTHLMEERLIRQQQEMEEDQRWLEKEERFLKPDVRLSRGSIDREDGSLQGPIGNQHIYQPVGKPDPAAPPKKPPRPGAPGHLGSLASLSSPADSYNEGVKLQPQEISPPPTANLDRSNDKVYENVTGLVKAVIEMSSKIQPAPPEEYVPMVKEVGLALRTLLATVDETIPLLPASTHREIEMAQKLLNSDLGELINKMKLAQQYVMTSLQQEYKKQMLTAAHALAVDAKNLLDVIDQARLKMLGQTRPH

inhibition at 0.03 µM (FAK protein [1]) [%] | FAK protein degradation rate (FAK protein [2]) [%] | Structure (SMILES)
≥ 75 | ≥ 75 | C[C@@H]1CN(CC(=O)N2CC(C)(C)c3ncc(Cc4ccc(F)cc4)cc32)[C@@H](CN(C)CCOCCOCCOCC(=O)Nc2ccc(Nc3ncc(C(F)(F)F)c(NCc4cccc(S(C)(=O)=O)c4)n3)cc2)CN1 [Example 111, 1-((2R,5R)-1-(2-(6-(4-Fluorobenzyl)-3,3-dimethyl-2,3-dihydro-1H-pyrrolo[3,2-b]pyridin-1-yl)-2-oxoethyl)-5-methylpiperazin-2-yl)-2-methyl-N-(4-((4-((3-(methylsulfonyl)benzyl)amino)-5-(trifluoromethyl)pyrimidin-2-yl)amino)phenyl)-5,8,11-trioxa-2-azatridecan-13-amide]
≥ 75 | ≥ 75 | COC[C@H]1CN[C@H](C)CN1CC(=O)N1CC(C)(C)c2nc(CN3CCN(CCOCC(=O)Nc4ccc(Nc5ncc(C(F)(F)F)c(NCc6cccc(S(C)(=O)=O)c6)n5)cc4)CC3)c(Cc3ccc(F)cc3)cc21 [Example 115, 2-(2-(4-((6-(4-Fluorobenzyl)-1-(2-((2R,5R)-2-(methoxymethyl)-5-methylpiperazin-1-yl)acetyl)-3,3-dimethyl-2,3-dihydro-1H-pyrrolo[3,2-b]pyridin-5-yl)methyl)piperazin-1-yl)ethoxy)-N-(4-((4-((3-(methylsulfonyl)benzyl)amino)-5-(trifluoromethyl)pyrimidin-2-yl)amino)phenyl)acetamide]
